Data published in PMC5699221 (Biochemistry, 2017).

Columns and labels:
[1] = target: PaNAS (Pseudomonas aeruginosa, UniProt Q9HUX4); assay: biochemical
[2] = system: N[C@H](Cc1c[nH]cn1)C(=O)O; assay: purified protein; conditions: co-substrate SAM, coupled with SaODH, NADPH, pyruvate, 50 mM Tris pH 8
[3] = target: PaODH (Pseudomonas aeruginosa, UniProt Q9HUX5); assay: NADPH fluorescence, titrated with enzyme; format: binding
PaODH, sequence (Q9HUX5 whole entry): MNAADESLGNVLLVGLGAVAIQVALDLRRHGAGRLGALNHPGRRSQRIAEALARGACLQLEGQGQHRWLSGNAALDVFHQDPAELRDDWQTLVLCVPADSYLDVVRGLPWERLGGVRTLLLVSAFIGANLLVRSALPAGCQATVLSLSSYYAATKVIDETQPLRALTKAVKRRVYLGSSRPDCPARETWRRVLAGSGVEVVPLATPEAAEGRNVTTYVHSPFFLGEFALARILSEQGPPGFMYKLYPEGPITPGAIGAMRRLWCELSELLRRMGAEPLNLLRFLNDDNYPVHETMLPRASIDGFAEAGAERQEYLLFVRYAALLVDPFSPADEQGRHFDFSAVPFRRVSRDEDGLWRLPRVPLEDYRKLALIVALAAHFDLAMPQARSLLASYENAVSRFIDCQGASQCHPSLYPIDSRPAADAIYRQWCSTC

PaNAS, sequence (Q9HUX4 whole entry): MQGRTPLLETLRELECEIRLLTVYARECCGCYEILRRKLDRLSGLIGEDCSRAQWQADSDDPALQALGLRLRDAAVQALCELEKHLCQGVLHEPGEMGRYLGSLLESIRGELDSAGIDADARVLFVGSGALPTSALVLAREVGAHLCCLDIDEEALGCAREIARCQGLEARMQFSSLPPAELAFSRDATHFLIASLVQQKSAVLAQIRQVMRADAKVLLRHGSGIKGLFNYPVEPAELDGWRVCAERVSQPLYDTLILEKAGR

C[S+](CC[C@H](N)C(=O)O)C[C@H]1O[C@@H](n2cnc3c(N)ncnc32)[C@H](O)[C@@H]1O (stereo partly shown) [SAM]
Kd [1]: 1.2 ± 0.3 µM

SaNAS (Staphylococcus aureus subsp. aureus Mu50)
Km [2]: 13.0 ± 0.7 µM | kcat [2]: 0.0298 ± 0.00033 s⁻¹

NC(=O)C1=CN([C@@H]2O[C@H](COP(=O)(O)OP(=O)(O)OC[C@H]3O[C@@H](n4cnc5c(N)ncnc54)[C@H](OP(=O)(O)O)[C@@H]3O)[C@@H](O)[C@H]2O)C=CC1 [NADPH]
Kd [3]: 11 ± 1 µM
